This passage reports Activity results from ChEMBL document CHEMBL3045187, “Chemical weed control in seedbed sown onion (Allium cepa L.)” (Crop Prot, 2006).

Data set [1] has as its system Malva sylvestris. Briefly: Herbicidal activity against Malva sylvestris assessed as total dry weight at 0.225 kg/ha applied as spray during post-emergence (reference value: 4.1 MT/ha). It is filed as functional.
The subject of data set [2] is Cyperus rotundus. The data set is described as follows: Herbicidal activity against Cyperus rotundus assessed as total dry weight at 0.225 kg/ha applied as spray during post-emergence (reference value: 4.1 MT/ha). The data set is classed as functional.
The test system of data set [3] is Chenopodiastrum murale. Briefly: Herbicidal activity against Chenopodium murale assessed as total dry weight at 0.225 kg/ha applied as spray during postemergence (reference value: 4.1 MT/ha). It is filed as functional.
Data set [4] relates to Cyperus rotundus. Briefly: Herbicidal activity against Cyperus rotundus assessed as total fresh weight at 0.225 kg/ha applied as spray during post-emergence (reference value: 23.6 MT/ha). It is filed as functional.
For data set [5], the system named is Malva sylvestris. Briefly: Herbicidal activity against Malva sylvestris assessed as total fresh weight at 0.225 kg/ha applied as spray during post-emergence (reference value: 23.6 MT/ha). It is filed as functional.
Data set [6] has as its system Chenopodiastrum murale. Briefly: Herbicidal activity against Chenopodium murale assessed as total fresh weight at 0.225 kg/ha applied as spray during postemergence (reference value: 23.6 MT/ha). It is filed as functional.
Data set [7] has as its system Allium cepa. Briefly: Phytotoxicity in Allium cepa (onion) seedling assessed as total fresh weight at 0.225 kg/ha applied as spray during post-emergence (reference value: 7.71 MT/ha). It is filed as organism-based. The note with it: in vivo, other.
In data set [8] the test system is Cyperus rotundus. The data set is described as follows: Herbicidal activity against Cyperus rotundus assessed as total fresh weight at 0.6 kg/ha applied as spray before seed sowing (reference value: 23.6 MT/ha). The data set is classed as functional.
Data set [9] deals with Malva sylvestris. The data set is described as follows: Herbicidal activity against Malva sylvestris assessed as total fresh weight at 0.6 kg/ha applied as spray before seed sowing (reference value: 23.6 MT/ha). It is filed as functional.
In data set [10] the test system is Chenopodiastrum murale. Briefly: Herbicidal activity against Chenopodium murale assessed as total fresh weight at 0.6 kg/ha applied as spray before seed sowing (reference value: 23.6 MT/ha). The data set is classed as functional.
In data set [11] the test system is Cyperus rotundus. Briefly: Herbicidal activity against Cyperus rotundus assessed as decrease in total dry weight at 0.6 kg/ha applied as spray during post-emergence relative to weed-infested control. It is filed as functional. More on the design: scale not given: the % may be the effect or the level left.
The subject of data set [12] is Malva sylvestris. Briefly: Herbicidal activity against Malva sylvestris assessed as decrease in total dry weight at 0.6 kg/ha applied as spray during post-emergence relative to weed-infested control. It is filed as functional. On the set-up: scale not given: the % may be the effect or the level left.
The test system of data set [13] is Chenopodiastrum murale. Briefly: Herbicidal activity against Chenopodium murale assessed as decrease in total dry weight at 0.6 kg/ha applied as spray during postemergence relative to weed-infested control. More on the design: scale not given: the % may be the effect or the level left. It is filed as functional.
Data set [14] relates to Malva sylvestris. Briefly: Herbicidal activity against Malva sylvestris assessed as total dry weight at 0.6 kg/ha applied as spray before seed sowing (reference value: 4.1 MT/ha). It is filed as functional.
In data set [15] the test system is Cyperus rotundus. The data set is described as follows: Herbicidal activity against Cyperus rotundus assessed as total dry weight at 0.6 kg/ha applied as spray before seed sowing (reference value: 4.1 MT/ha). It is filed as functional.
In data set [16] the test system is Malva sylvestris. The data set is described as follows: Herbicidal activity against Malva sylvestris assessed as total fresh weight at 0.6 kg/ha applied as spray during post-emergence (reference value: 23.6 MT/ha). It is filed as functional.
The subject of data set [17] is Cyperus rotundus. The data set is described as follows: Herbicidal activity against Cyperus rotundus assessed as total fresh weight at 0.6 kg/ha applied as spray during post-emergence (reference value: 23.6 MT/ha). It is filed as functional.
Data set [18] deals with Chenopodiastrum murale. The data set is described as follows: Herbicidal activity against Chenopodium murale assessed as total fresh weight at 0.6 kg/ha applied as spray during postemergence (reference value: 23.6 MT/ha). It is filed as functional.
In data set [19] the test system is Chenopodiastrum murale. Briefly: Herbicidal activity against Chenopodium murale assessed as total dry weight at 0.6 kg/ha applied as spray before seed sowing (reference value: 4.1 MT/ha). It is filed as functional.
In data set [20] the test system is Allium cepa. The data set is described as follows: Phytotoxicity in Allium cepa (onion) seedling assessed as total fresh weight at 0.6 kg/ha applied as spray during post-emergence (reference value: 7.71 MT/ha). The data set is classed as organism-based. As to conditions: in vivo, other.
Data set [21] relates to Allium cepa. The data set is described as follows: Phytotoxicity in Allium cepa (onion) seedling assessed as total fresh weight at 0.6 kg/ha applied as spray before seed sowing (reference value: 7.71 MT/ha). It is filed as organism-based. As to conditions: in vivo, other.
The subject of data set [22] is Cyperus rotundus. The data set is described as follows: Herbicidal activity against Cyperus rotundus assessed as decrease in total dry weight at 0.02 kg/ha applied as spray during post-emergence relative to weed-infested control. The data set is classed as functional. On the set-up: scale not given: the % may be the effect or the level left.
For data set [23], the system named is Malva sylvestris. The data set is described as follows: Herbicidal activity against Malva sylvestris assessed as decrease in total dry weight at 0.02 kg/ha applied as spray during post-emergence relative to weed-infested control. On the set-up: scale not given: the % may be the effect or the level left. It is filed as functional.
Data set [24] relates to Chenopodiastrum murale. The data set is described as follows: Herbicidal activity against Chenopodium murale assessed as decrease in total dry weight at 0.02 kg/ha applied as spray during postemergence relative to weed-infested control. It is filed as functional. On the set-up: scale not given: the % may be the effect or the level left.
Data set [25] relates to Malva sylvestris. The data set is described as follows: Herbicidal activity against Malva sylvestris assessed as total fresh weight at 0.02 kg/ha applied as spray during post-emergence (reference value: 23.6 MT/ha). It is filed as functional.
The subject of data set [26] is Cyperus rotundus. Briefly: Herbicidal activity against Cyperus rotundus assessed as total fresh weight at 0.02 kg/ha applied as spray during post-emergence (reference value: 23.6 MT/ha). The data set is classed as functional.
The test system of data set [27] is Chenopodiastrum murale. Briefly: Herbicidal activity against Chenopodium murale assessed as total fresh weight at 0.02 kg/ha applied as spray during postemergence (reference value: 23.6 MT/ha). It is filed as functional.
For data set [28], the system named is Allium cepa. Briefly: Phytotoxicity in Allium cepa (onion) seedling assessed as total fresh weight at 0.02 kg/ha applied as spray during postemergence (reference value: 7.71 MT/ha). As to conditions: in vivo, other. It is filed as organism-based.
Data set [29] deals with Cyperus rotundus. The data set is described as follows: Herbicidal activity against Cyperus rotundus assessed as total fresh weight at 1.5 kg/ha applied as spray before seed sowing (reference value: 23.6 MT/ha). It is filed as functional. As to conditions: pooled result: one value given for 3 cell lines, strains, targets or settings.
Data set [30] relates to Cyperus rotundus. Briefly: Herbicidal activity against Cyperus rotundus assessed as total dry weight at 1.5 kg/ha applied as spray before seed sowing (reference value: 4.1 MT/ha). The data set is classed as functional. As to conditions: pooled result: one value given for 3 cell lines, strains, targets or settings.
Data set [31] has as its system Allium cepa. Briefly: Phytotoxicity in Allium cepa (onion) seedling assessed as total fresh weight at 1.5 kg/ha applied as spray before seed sowing (reference value: 7.71 MT/ha). It is filed as organism-based. As to conditions: in vivo, other.

On to `C[C@@H](Oc1ccc(Oc2ccc(C(F)(F)F)cn2)cc1)C(=O)O` [FLUAZIFOP-P], for which the Activity was determined as 2.9 MT/ha in data set [1]; 2.9 MT/ha in data set [2]; 2.9 MT/ha in data set [3]; 15.6 MT/ha in [4]; 15.6 MT/ha in data set [5]; 15.6 MT/ha in data set [6]. Also, the Activity in data set [7] was determined as 9.18 MT/ha.

As to `CCOc1cc(Oc2ccc(C(F)(F)F)cc2Cl)ccc1[N+](=O)[O-]` [OXYFLUORFEN], the Activity came to 15.8 MT/ha in [8]; 15.8 MT/ha in data set [9]; 15.8 MT/ha in [10]; 68% in data set [11]; 68% in data set [12]; 68% in [13]. The Activity in data set [14] turned out to be 2.93 MT/ha; in data set [15], 2.93 MT/ha; in [16], 7.7 MT/ha; in [17] it was 7.7 MT/ha; in [18] it was 7.7 MT/ha; in data set [19], 2.93 MT/ha. Further, the Activity turned out to be 17.01 MT/ha in data set [20] and 8.68 MT/ha in data set [21].

`C[n+]1ccc(-c2cc[n+](C)cc2)cc1` [PARAQUAT]: the Activity in data set [22] is listed as 60%; in data set [23] it was 60%; in data set [24], 60%; in data set [25] it was 8.2 MT/ha; in data set [26], 8.2 MT/ha; in [27], 8.2 MT/ha. The Activity in [28] was 14.11 MT/ha.

`CCC(CC)Nc1c([N+](=O)[O-])cc(C)c(C)c1[N+](=O)[O-]` [PENDIMETHALIN]: the Activity is reported as 17.5 MT/ha in [29], 2.9 MT/ha in [30] and 7.42 MT/ha in data set [31].
